Test results taken from paper PMC10379611 (International Journal of Molecular Sciences, 2023).
pIC50: −log10 of the molar value. Where “and” joins values, the source holds several entries; their conditions need not be identical. Identical values can stand only once. Entries after “also recorded” stand apart in the source; their conditions may differ.

Key:
ENT2 = biological target: T1, ENT2 (Homo sapiens, UniProt Q14542); experiment: ENT2-mediated adenosine uptake in ENT2-MDCKII cells; format: cell-based
T1 construct: expressed in transfected cells; host or cells: MDCKII (lentiviral transduction)
T1 sequence (Q14542 1-456): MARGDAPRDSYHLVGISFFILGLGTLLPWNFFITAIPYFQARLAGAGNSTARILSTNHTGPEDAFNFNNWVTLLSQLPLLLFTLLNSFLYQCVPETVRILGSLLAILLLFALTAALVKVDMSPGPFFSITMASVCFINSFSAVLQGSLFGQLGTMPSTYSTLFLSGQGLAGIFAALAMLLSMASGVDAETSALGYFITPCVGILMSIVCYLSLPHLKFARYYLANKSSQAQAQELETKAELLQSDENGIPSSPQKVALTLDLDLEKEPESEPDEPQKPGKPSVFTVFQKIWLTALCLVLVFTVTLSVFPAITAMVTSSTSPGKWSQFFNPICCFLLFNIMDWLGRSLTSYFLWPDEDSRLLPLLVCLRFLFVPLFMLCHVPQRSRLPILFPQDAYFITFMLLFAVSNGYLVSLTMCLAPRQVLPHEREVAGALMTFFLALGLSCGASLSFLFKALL
Protocol: ENT and CNT transporter interactions were investigated in transporter-overexpressing cell lines. Madin-Darby Canine Kidney II (MDCKII) cell lines overexpressing the human uptake transporters CNT1, CNT2, ENT1, and ENT2 were generated via lentiviral transduction. Cell cultures were maintained in Dulbecco’s modified Eagle’s medium (DMEM) and 4500 mg/L of glucose supplemented with GlutaMax^TM, 10% v/v fetal bovine serum (FBS), 100 units/mL penicillin, and 100 µg/mL streptomycin (all from Gibco/ThermoFisher, Waltham, MA, USA) at 37 °C in 5% CO2 at 95% humidity. For uptake inhibition assays, transporter-expressing cells and mock-transduced control cells were seeded on 96-well tissue culture plates at a density of 1 × 10^5 cells/well. […] To determine the amounts of accumulated radiolabeled substrates, cell lysates mixed with a liquid scintillation cocktail were measured with a MicroBeta2 microplate counter (PerkinElmer, Singapore).
Transporter-specific accumulation of the probe substrate was calculated using the following formula: ACCSpec = ACCTRP − ACCMock, where ACCTRP is the accumulation of the probe in transporter-expressing cells and ACCMock is the accumulation of the probe in control cells. Relative transporter-specific accumulation values were calculated as percentages of the control value (with vehicle only).

ABCG2 = biological target: T2, ABCG2 (Homo sapiens, UniProt Q9UNQ0); experiment: ABCG2 ATPase activity in Sf9 membrane vesicles; format: biochemical; design: purchased Solvo Biotechnology, Budapest; details: insect cell membrane vesicles
T2 sequence (Q9UNQ0 1-655): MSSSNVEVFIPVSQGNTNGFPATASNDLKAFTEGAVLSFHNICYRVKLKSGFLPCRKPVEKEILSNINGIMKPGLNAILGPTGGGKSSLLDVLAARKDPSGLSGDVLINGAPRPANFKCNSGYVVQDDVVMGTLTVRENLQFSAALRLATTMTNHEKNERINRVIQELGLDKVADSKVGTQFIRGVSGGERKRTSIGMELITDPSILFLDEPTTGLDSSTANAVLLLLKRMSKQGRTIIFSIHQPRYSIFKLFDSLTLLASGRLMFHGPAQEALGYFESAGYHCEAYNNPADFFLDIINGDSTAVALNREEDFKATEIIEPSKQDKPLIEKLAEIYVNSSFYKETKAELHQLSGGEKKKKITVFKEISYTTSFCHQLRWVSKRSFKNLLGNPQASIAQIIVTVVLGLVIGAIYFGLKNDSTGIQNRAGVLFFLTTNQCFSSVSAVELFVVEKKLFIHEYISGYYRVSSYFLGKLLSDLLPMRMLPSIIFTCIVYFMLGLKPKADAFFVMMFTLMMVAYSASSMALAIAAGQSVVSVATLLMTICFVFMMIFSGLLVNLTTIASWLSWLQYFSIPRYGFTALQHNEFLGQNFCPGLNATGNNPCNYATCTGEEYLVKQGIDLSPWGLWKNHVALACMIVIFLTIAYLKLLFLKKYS
Protocol: (§1) ATPase activity was measured in Sf9 membrane vesicles containing the respective human ABC transporters, as described in our earlier work. For ABCG2, the cholesterol level in the vesicles was increased to the level of mammalian cell membranes to obtain full activity. In brief, membrane vesicles (5 μg protein/sample) were incubated with 3 mM Mg-ATP and various concentrations of test compounds. Background ATPase activity of membranes was determined by applying the general ABC transporter inhibitor sodium orthovanadate (1 mM). Measurements were carried out for 20 min at 37 °C. The amount of phosphate liberated from ATP was detected using a colorimetric method and a VictorX3 plate reader at 660 nm Abs. Reference activators (50 µM verapamil for ABCB1 and 1 µM quercetin for ABCG2) served as positive controls.

ABCB1 = ABCB1 (Homo sapiens, UniProt P08183); experiment: ABCB1 ATPase activity in Sf9 membrane vesicles; format: biochemical; design: purchased Solvo Biotechnology, Budapest; details: insect cell membrane vesicles
ABCB1, sequence (P08183 whole entry): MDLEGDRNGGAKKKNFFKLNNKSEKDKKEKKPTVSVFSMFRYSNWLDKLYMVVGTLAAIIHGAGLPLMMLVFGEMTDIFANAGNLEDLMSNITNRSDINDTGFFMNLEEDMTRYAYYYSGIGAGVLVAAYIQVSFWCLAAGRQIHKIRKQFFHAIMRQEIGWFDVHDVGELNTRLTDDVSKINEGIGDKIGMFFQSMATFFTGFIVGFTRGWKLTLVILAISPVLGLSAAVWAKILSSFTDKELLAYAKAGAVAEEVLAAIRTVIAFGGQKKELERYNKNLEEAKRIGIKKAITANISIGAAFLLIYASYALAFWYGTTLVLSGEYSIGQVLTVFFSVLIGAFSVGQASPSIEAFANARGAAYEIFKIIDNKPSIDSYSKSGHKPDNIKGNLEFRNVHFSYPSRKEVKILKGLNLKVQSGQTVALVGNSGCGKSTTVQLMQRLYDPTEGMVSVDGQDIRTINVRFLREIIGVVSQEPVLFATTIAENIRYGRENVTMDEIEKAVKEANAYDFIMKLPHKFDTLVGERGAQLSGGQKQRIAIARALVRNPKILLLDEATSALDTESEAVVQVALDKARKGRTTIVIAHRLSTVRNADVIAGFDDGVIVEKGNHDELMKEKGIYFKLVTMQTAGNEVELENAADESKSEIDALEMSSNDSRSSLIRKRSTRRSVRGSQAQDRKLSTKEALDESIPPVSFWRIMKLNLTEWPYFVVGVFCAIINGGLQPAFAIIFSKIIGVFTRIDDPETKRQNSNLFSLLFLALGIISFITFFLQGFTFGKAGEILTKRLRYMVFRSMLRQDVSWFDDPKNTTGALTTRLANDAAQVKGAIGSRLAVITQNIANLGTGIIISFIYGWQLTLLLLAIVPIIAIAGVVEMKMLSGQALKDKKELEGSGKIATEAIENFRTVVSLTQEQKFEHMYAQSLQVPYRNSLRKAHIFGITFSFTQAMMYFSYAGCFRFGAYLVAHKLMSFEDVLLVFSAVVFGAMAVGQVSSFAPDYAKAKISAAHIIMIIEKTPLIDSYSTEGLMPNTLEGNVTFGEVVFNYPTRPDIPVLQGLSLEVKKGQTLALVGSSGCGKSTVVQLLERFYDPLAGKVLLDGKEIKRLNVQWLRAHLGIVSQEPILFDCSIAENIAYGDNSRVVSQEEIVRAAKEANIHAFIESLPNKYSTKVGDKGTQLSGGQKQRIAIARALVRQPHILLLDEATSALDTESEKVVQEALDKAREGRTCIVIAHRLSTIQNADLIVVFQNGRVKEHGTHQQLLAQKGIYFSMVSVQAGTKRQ
Protocol: as §1

SARS-CoV-2 = test system: SARS-CoV-2; design: method as in PMID 34726479; details: cell culture tests; cited from earlier work
[1] = cited from earlier work
OATP1B3 = details: read-out: IC50 for OATP1B3; cited from earlier work
OATP1B1 = details: read-out: IC50 of OATP1B1; rosuvastatin transport; cited from earlier work

| Compound | inhibition of adenosine uptake by ENT2 (ENT2) | effect on ATPase activity of ABCG2 (ABCG2) | effect on transport-coupled ATPase activity of ABCB1 (ABCB1) | antiviral activity against SARS-CoV-2 (SARS-CoV-2) | plasma peak concentration ([1]; Paxlovid 300 mg Nirmatrelvir and 100 mg Ritonavir twice daily, listed as NIR) | observed plasma concentrations ([1]; recommended clinical dose of Paxlovid) [µM] | pIC50 (OATP1B3) | pIC50 (OATP1B1) |
| --- | --- | --- | --- | --- | --- | --- | --- | --- |
| CC(C)C(=O)OC[C@H]1O[C@@H](n2ccc(NO)nc2=O)[C@H](O)[C@@H]1O [EIDD-2801, Molnupiravir] | only mildly inhibited | – | – | – | – | – | – | – |
| CC(C)(C)[C@H](NC(=O)C(F)(F)F)C(=O)N1C[C@H]2[C@@H]([C@H]1C(=O)N[C@H](C#N)C[C@@H]1CCNC1=O)C2(C)C [Nirmatrelvir] | – | no such effect | significantly increased; also recorded: stimulated | nanomolar range | […] | […] | […] | […] |
